Assay results: patent publication USRE47221E1, “Tricyclic compounds” (AbbVie Inc., priority 2009, dated 2019)
Where a name gives a salt, the structure may show the parent alone.

Molecular target: T1, Jak3 (Homo sapiens, UniProt P52333)
T1 construct: Jak3 enzyme (aa 811-1103); expressed in SF9 cells as a GST fusion; GST; made in house; host or cells: SF9 insect cells
Assay: Jak3 enzyme data for selected compounds
Assay type: biochemical

T1 sequence (P52333 811-1103): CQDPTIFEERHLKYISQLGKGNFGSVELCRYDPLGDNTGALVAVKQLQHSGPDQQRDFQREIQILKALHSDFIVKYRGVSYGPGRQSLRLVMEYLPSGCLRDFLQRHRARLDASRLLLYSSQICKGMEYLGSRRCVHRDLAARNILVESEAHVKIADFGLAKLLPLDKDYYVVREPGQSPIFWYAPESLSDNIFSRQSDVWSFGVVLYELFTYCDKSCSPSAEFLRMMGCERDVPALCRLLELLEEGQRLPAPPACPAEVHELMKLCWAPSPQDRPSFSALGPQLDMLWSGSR

| IC50 [nM] | SMILES |
| --- | --- |
| 100 to 1000 | O=S(=O)(NC12CCC(c3nnc4cnc5[nH]ccc5n34)(CC1)CC2)N1CCCC1 [Example #9, N-(4-(6H-pyrrolo[2,3-e][1,2,4]triazolo[4,3-a]pyrazin-1-yl)bicyclo[2.2.2]octan-1-yl)pyrrolidine-1-sulfonamide] |
| > 1000 | CC[C@@H]1C[C@@H](Oc2ccc(C#N)cn2)C[C@H]1c1nnc2cnc3[nH]ccc3n12 (racemic) [D.2.10] |
| < 100 | C[C@@H]1CCN(C(=O)N2CC[C@H](F)C2)C[C@@H]1c1ncc2cnc3[nH]ccc3n12 [J.2.12] |
| < 100 | C[C@@H]1C[C@H](NS(=O)(=O)N2CC(F)(F)C2)C[C@@H]1c1ncc2cnc3[nH]ccc3n12 [D.1.78] |
| < 100 | CC[C@@H]1C[C@@H](Oc2ccc(C#N)c(F)c2)C[C@@H]1c1nnc2cnc3[nH]ccc3n12 (single isomer, unassigned) [AA.1.103, 4-(3-ethyl-4-(6H-pyrrolo[2,3-e][1,2,4]triazolo[4,3-a]pyrazin-1-yl)cyclopentyloxy)-2-fluorobenzonitrile] |
| < 100 | C[C@@H]1CCN(C(=O)N2CCCCCC2)C[C@@H]1c1ncc2cnc3[nH]ccc3n12 [J.2.14] |
| > 1000 | CC[C@H]1C[C@@H](Oc2cnc(C#N)cn2)C[C@@H]1c1nnc2cnc3[nH]ccc3n12 (single isomer, unassigned) [AA.1.97, 5-(3-ethyl-4-(6H-pyrrolo[2,3-e][1,2,4]triazolo[4,3-a]pyrazin-1-yl)cyclopentyloxy)pyrazine-2-carbonitrile] |
| 100 to 1000 | O=S(=O)(NC[C@H]1CC[C@@H](c2ncc3cnc4[nH]ccc4n23)C1)C1CC1 (single isomer, unassigned) [AA.1.61] |
| > 1000 | CC[C@@H]1C[C@H](S(=O)(=O)CC(F)(F)F)C[C@@H]1c1nnc2cnc3[nH]ccc3n12 [LL.1.4] |
| 100 to 1000 | N#Cc1ccc(OCC23C4C5C2C2C3C4C52c2ncc3cnc4[nH]ccc4n23)cc1 (centres unmarked) [D.1.49] |
| < 100 | C[C@@H]1CCN(C(=O)N2CCC[C@@H]2CO)C[C@@H]1c1ncc2cnc3[nH]ccc3n12 [J.2.9] |
| 100 to 1000 | CC[C@@H]1C[C@@H](OCC2CC2)C[C@@H]1c1nnc2cnc3[nH]ccc3n12 (single isomer, unassigned) [AA.1.90, 1-(4-(cyclopropylmethoxy)-2-ethylcyclopentyl)-6H-pyrrolo[2,3-e][1,2,4]triazolo[4,3-a]pyrazine] |
| 100 to 1000 | C[C@@H]1C[C@H](NS(=O)(=O)C2CC2)CN1c1ncc2cnc3[nH]ccc3n12 [D.1.47] |
| 100 to 1000 | N#CC1CCN(C(=O)N2CCC[C@@H](c3ncc4cnc5[nH]ccc5n34)C2)CC1 [J.3.8] |
| < 100 | O=C(N1CCC[C@@H](c2ncc3cnc4[nH]ccc4n23)C1)N1CC(F)(F)C1 [J.3.1] |
| > 1000 | CC[C@@H]1C[C@H](NS(=O)(=O)CCC(F)(F)F)CN1c1ncc2cnc3[nH]ccc3n12 [Example #27, N-((3S,5R)-5-ethyl-1-(6H-imidazo[1,5-a]pyrrolo[2,3-e]pyrazin-1-yl)pyrrolidin-3-yl)-3,3,3-trifluoropropane-1-sulfonamide] |
| < 100 | C[C@@H]1C[C@H](NS(=O)(=O)NCCO)C[C@@H]1c1cnc2cnc3[nH]ccc3n12 (single isomer, unassigned) [AA.1.81] |
| < 100 | CC[C@@H]1C[C@@H](Oc2ccc(C#N)cc2)C[C@@H]1c1ncc2cnc3[nH]ccc3n12 [D.2.24] |
| < 100 | CC[C@@H]1C[C@H](NS(=O)(=O)C2CC2)CN1c1cnc2cnc3[nH]ccc3n12 [D.1.25] |
| < 100 | O=S(=O)(NC12CCC(c3n[nH]c4cnc5[nH]ccc5c34)(CC1)CC2)C1CC1 [Example #29, N-(4-(3,6-dihydropyrazolo[4,3-d]pyrrolo[2,3-b]pyridin-1-yl)bicyclo[2.2.2]octan-1-yl)cyclopropanesulfonamide] |
| > 1000 | O=S(=O)(CCC(F)(F)F)N1CCC2CC1CN2c1ncc2cnc3[nH]ccc3n12 (centres unmarked) [D.1.73] |
| > 1000 | CC[C@H]1C[C@H](OCc2ccc(C#N)cc2)C[C@H]1c1nnc2cnc3[nH]ccc3n12 (single isomer, unassigned) [AA.1.102, 4-((3-ethyl-4-(6H-pyrrolo[2,3-e][1,2,4]triazolo[4,3-a]pyrazin-1-yl)cyclopentyloxy)methyl)benzonitrile] |
| 100 to 1000 | CC[C@@H]1C[C@H](NS(=O)(=O)C2CC2)C[C@@H]1c1nnc2cnc3[nH]cc(I)c3n12 [Preparation #GGG.1, N-((1S,3R,4S)-3-ethyl-4-(8-iodo-6H-pyrrolo[2,3-e][1,2,4]triazolo[4,3-a]pyrazin-1-yl)cyclopentyl)cyclopropanesulfonamide] |
| 100 to 1000 | O=S(=O)(NC12CCC(c3nnc4cnc5[nH]ccc5n34)(CC1)CC2)N1CC(F)(F)C1 [D.1.30] |
| 100 to 1000 | CC[C@@H]1C[C@H](Nc2cnc(C#N)cn2)CN1c1ncc2cnc3[nH]ccc3n12 [Example #26, 5-((3S,5R)-5-ethyl-1-(6H-imidazo[1,5-a]pyrrolo[2,3-e]pyrazin-1-yl)pyrrolidin-3-ylamino)pyrazine-2-carbonitrile oxalate] |

| IC50 [nM] | SMILES |
| --- | --- |
| < 100 | C[C@@H]1CCN(C(=O)N2CCOCC2)C[C@@H]1c1ncc2cnc3[nH]ccc3n12 [I.1.2] |
| > 1000 | O=S(=O)(CCC(F)(F)F)N1CCC[C@H]2[C@H]1CCN2c1ncc2cnc3[nH]ccc3n12 (racemic) [D.1.69] |
| 100 to 1000 | CC[C@@H]1C[C@@H](Oc2cnc(C#N)cn2)C[C@@H]1c1nnc2cnc3[nH]ccc3n12 (single isomer, unassigned) [AA.1.33, 5-(3-ethyl-4-(6H-pyrrolo[2,3-e][1,2,4]triazolo[4,3-a]pyrazin-1-yl)cyclopentyloxy)pyrazine-2-carbonitrile] |
| < 100 | CC[C@@H]1C[C@H](N(CCO)S(=O)(=O)C2CC2)C[C@@H]1c1nnc2cnc3[nH]ccc3n12 [D.1.31] |
| 100 to 1000 | O=S(=O)(NC[C@H]1CC[C@H](c2ncc3cnc4[nH]ccc4n23)C1)C1CC1 (single isomer, unassigned) [AA.1.60] |
| < 100 | CC[C@@H]1C[C@@H](OCCC(F)(F)F)C[C@@H]1c1nnc2cnc3[nH]ccc3n12 (relative stereo) [AA.1.107, 1-(2-ethyl-4-(3,3,3-trifluoropropoxy)cyclopentyl)-6H-pyrrolo[2,3-e][1,2,4]triazolo[4,3-a]pyrazine] |
| 100 to 1000 | CC[C@@H]1C[C@H](NS(=O)(=O)C2(CC)CC2)C[C@@H]1c1nnc2cnc3[nH]ccc3n12 [D.1.82] |
| > 1000 | O=S(=O)(CCC(F)(F)F)N1CC2CN(c3ncc4cnc5[nH]ccc5n34)CC2C1 (centres unmarked) [D.1.64] |
| 100 to 1000 | CC[C@@H]1C[C@H](NS(=O)(=O)NCCO)C[C@@H]1c1nnc2cnc3[nH]ccc3n12 [D.1.56] |
| 100 to 1000 | CC[C@@H]1C[C@H](NS(=O)(=O)N2CCC(F)(F)C2)C[C@@H]1c1nnc2cnc3[nH]ccc3n12 [D.1.13] |
| 100 to 1000 | C[C@@H]1C[C@H](Nc2cnc(C#N)cn2)C[C@@H]1c1cnc2cnc3[nH]ccc3n12 (single isomer, unassigned) [AA.1.16, 5-(3-(3H-imidazo[1,2-a]pyrrolo[2,3,-e]pyrazin-8-yl)-4-methylcyclopentylamino)pyrazine-2-carbonitrile] |
| < 100 | C[C@@H]1CCN(C(=O)N2CCC(F)(F)C2)C[C@@H]1c1ncc2cnc3[nH]ccc3n12 [J.2.8] |
| < 100 | CC[C@@H]1C[C@H](Nc2cnc(C#N)cn2)C[C@@H]1c1ncc2cnc3[nH]ccc3n12 [D.2.13] |
| < 100 | CC1(C)CCN(C(=O)N2CCC[C@@H](c3ncc4cnc5[nH]ccc5n34)C2)CC1 [J.3.10] |
| < 100 | C[C@@H]1CCN(C(=O)C2CCC(F)(F)CC2)C[C@@H]1c1ncc2cnc3[nH]ccc3n12 [H.1.1] |
| > 1000 | O=S(=O)(CCC(F)(F)F)N1CC2CC1CN2c1ncc2cnc3[nH]ccc3n12 (centres unmarked) [D.1.63] |
| > 1000 | C[C@H]1C[C@H](Oc2ccc(C#N)cc2)C[C@H]1c1nnc2cnc3[nH]ccc3n12 (single isomer, unassigned) [AA.1.93, 4-(3-methyl-4-(6H-pyrrolo[2,3-e][1,2,4]triazolo[4,3-a]pyrazin-1-yl)cyclopentyloxy)benzonitril] |
| 100 to 1000 | CC[C@@H]1C[C@H](NS(=O)(=O)N2CCC[C@H]2C(F)(F)F)CC1c1nnc2cnc3[nH]ccc3n12 (some centres unmarked) [D.1.12] |
| < 100 | CC[C@H]1C[C@@H](NS(=O)(=O)C2CC2)C[C@H]1c1cnc2cnc3[nH]ccc3n12 (single isomer, unassigned) [AA.1.25, N-(3-ethyl-4-(3H-imidazo[1,2-a]pyrrolo[2,3-e]pyrazin-8-yl)cyclopentyl)cyclopropanesulfonamide] |
| < 100 | C[C@H]1CCN(C(=O)N2CC(C#N)C2)C[C@H]1c1ncc2cnc3[nH]ccc3n12 (racemic) [J.1.1] |
| < 100 | CC[C@@H]1C[C@@H](Oc2ccc(C#N)cc2F)C[C@@H]1c1nnc2cnc3[nH]ccc3n12 (single isomer, unassigned) [AA.1.104, 4-(3-ethyl-4-(6H-pyrrolo[2,3-e][1,2,4]triazolo[4,3-a]pyrazin-1-yl)cyclopentyloxy)-3-fluorobenzonitrile] |
| > 1000 | CC[C@@H]1C[C@H](NS(=O)(=O)CCn2cc(C#N)cn2)C[C@@H]1c1nnc2cnc3[nH]ccc3n12 [YY.1.1, 2-(4-cyano-1H-pyrazol-1-yl)-N-((1S,3R,4S)-3-ethyl-4-(6H-pyrrolo[2,3-e][1,2,4]triazolo[4,3-a]pyrazin-1-yl)cyclopentyl)ethanesulfonamide] |
| 100 to 1000 | CC[C@@H]1C[C@@H](Oc2ccc(C#N)cn2)C[C@@H]1c1nnc2cnc3[nH]ccc3n12 (racemic) [D.2.22] |
| < 100 | CC[C@@H]1C[C@H](NS(=O)(=O)N2CC(F)(F)C2)C[C@@H]1c1cnc2cnc3[nH]ccc3n12 (single isomer, unassigned) [AA.1.79, N-(3-ethyl-4-(3H-imidazo[1,2-a]pyrrolo[2,3-e]pyrazin-8-yl)cyclopentyl)-3,3-difluoroazetidine-1-sulfonamide] |
| > 1000 | CCC1CC(CNS(=O)(=O)C2CC2)CC1c1nnc2cnc3[nH]ccc3n12 (single isomer, unassigned) [AA.1.64, N-((3-ethyl-4-(6H-pyrrolo[2,3-e][1,2,4]triazolo[4,3-a]pyrazin-1-yl)cyclopentyl)methyl)cyclopropane sulfonamide] |
